According to patent publication US12146886B2, “Methods for detecting and treating endometriosis” (The Feinstein Institutes for Medical Research, priority 2018, dated 2024):

What was measured:
[1] = test system: ME-SFCs; test: Long-term study: transient cytokine exposure of ME-SFCs, decidualization 25 days after final treatment (IGFBP-1 ELISA); format: cell-based, human; settings: for SFC decidualization capacity after transient exposure: FIG. 4A-4B
Experimental: (§1) In vitro exposure of ME-SFCs to inflammatory cytokines (e.g. TNFα) reduces decidualization capacity. […] After 24 hrs, culture supernatants were collected and IGFBP-1 protein levels were measured by ELISA. […] Twenty four hours later, the culture supernatants were collected and IGFBP-1 protein levels were measured by ELISA.

[2] = test system: SFCs
[3] = test system: ME-SFCs; test: Acute exposure of ME-SFCs to inflammatory cytokines, then cAMP decidualization (IGFBP-1 ELISA); format: cell-based, human; settings: TNFα 1 pg/ml-10 ng/ml; SFCs from a normal subject; 24 hours; cAMP 0.5 mM
Experimental: as §1

Row | Substance | SFC decidualization capacity after transient exposure [1] | cell viability [2] | decidualization capacity of SFCs [3] | persistence of decidualization defects (reduced IGFBP1 production) after removal from culture ([1]; TNFα 0.1-1.0 ng/ml on days 0 and 5, decidualization with cAMP alone or cAMP and medroxyprogesterone)
1 | IL-1β: inflammatory cytokine | persistent defects | – | – | –
2 | TNFα | persistent defects | not affected | dramatically reduces decidualization capacity | at least 25 days
